Data published in PubChem BioAssay (NCI).
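Step 1: Grow cells in 96-well plates. Step 2: Expose to compound for 48 hours at 5 concentrations. Step 3: Interpolate endpoints linearly; if unreached, use highest concentration. GI50: concentration for 50% inhibition of growth. TGI: concentration producing complete growth inhibition.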

Key:
Test in all cases: NCI anticancer screen, dose series, 48 h
[1] = tested on: OVCAR-5 ovarian
[2] = tested on: HOP-92 NSCLC
[3] = tested on: HL-60(TB) leukemia
[4] = tested on: HCT-116 colon
[5] = tested on: COLO 205 colon
[6] = tested on: SF-539 CNS
[7] = tested on: U251 CNS
[8] = tested on: SK-MEL-28 melanoma
[9] = tested on: SR leukemia
[10] = tested on: BT-549 breast

Compound: CCOC(=O)/C(C#N)=C1\SS/C(=C(/C#N)C(=O)OCC)S1
- GI50 [1]: 22.4 µM
- TGI [1]: 42.8 µM
- GI50 [2]: 14.3 µM
- TGI [2]: 28.3 µM
- GI50 [3]: 22.6 µM
- TGI [3]: 63 µM
- GI50 [4]: 14.2 µM
- TGI [4]: 33.5 µM
- GI50 [5]: 0.861 µM
- TGI [5]: 2.67 µM
- GI50 [6]: 22.2 µM
- TGI [6]: 42.8 µM
- GI50 [7]: 19 µM
- TGI [7]: 38 µM
- GI50 [8]: 18.9 µM
- TGI [8]: 34.1 µM
- GI50 [9]: 3.59 µM
- TGI [9]: > 100 µM
- GI50 [10]: 17.8 µM
- TGI [10]: 32.7 µM

Compound: C(=Nc1cnc2ccccc2c1)c1ccc2ccccc2n1
- TGI [1]: > 100 µM
- TGI [2]: > 100 µM
- TGI [3]: > 100 µM
- TGI [4]: > 100 µM
- TGI [5]: > 100 µM
- TGI [6]: > 100 µM
- TGI [7]: > 100 µM
- TGI [8]: > 100 µM
- TGI [9]: 71.4 µM
- TGI [10]: > 100 µM

Compound: O=C(/C=C/C(Cl)(Cl)Cl)Nc1ccc(Cl)cc1
- TGI [1]: 27.5 µM
- TGI [2]: 4.08 µM
- TGI [3]: 2.03 µM
- TGI [4]: 17.6 µM
- TGI [5]: 5.16 µM
- TGI [6]: 3.97 µM
- TGI [7]: 26.2 µM
- TGI [8]: 35.1 µM
- TGI [9]: 3.25 µM
- TGI [10]: 31.1 µM

Compound: COc1cc(/C=C/C(=O)N2CCC=CC2=O)cc(OC)c1OC
- GI50 [1]: 2.77 µM
- TGI [1]: 8.68 µM
- GI50 [2]: 2.29 µM
- TGI [2]: 4.61 µM
- GI50 [3]: 1.91 µM
- TGI [3]: 5.28 µM
- GI50 [4]: 1.8 µM
- TGI [4]: 4.13 µM
- GI50 [5]: 1.93 µM
- TGI [5]: 4.14 µM
- GI50 [6]: 1.82 µM
- TGI [6]: 4.47 µM
- GI50 [7]: 3.19 µM
- TGI [7]: 11 µM
- GI50 [8]: 2.21 µM
- TGI [8]: 5.53 µM
- GI50 [9]: 1.75 µM
- TGI [9]: > 100 µM
- GI50 [10]: 2.45 µM
- TGI [10]: 7.84 µM

Compound: C/C(=N/O)c1ccc2c(c1)/C(=N/O)c1ccccc1-2
- GI50 [1]: 22.8 µM
- TGI [1]: 53.5 µM
- GI50 [2]: 27.8 µM
- TGI [2]: 60 µM
- GI50 [3]: 15.8 µM
- TGI [3]: 35.7 µM
- GI50 [4]: 20.7 µM
- TGI [4]: 38.5 µM
- GI50 [5]: 18.1 µM
- TGI [5]: 35.6 µM
- GI50 [6]: 21.6 µM
- TGI [6]: 50 µM
- GI50 [7]: 21.2 µM
- TGI [7]: 46 µM
- GI50 [8]: 17.9 µM
- TGI [8]: 39.9 µM
- GI50 [9]: 12.5 µM
- TGI [9]: 31.8 µM
- GI50 [10]: 21.4 µM
- TGI [10]: 50.4 µM

Compound: O=S(=O)(c1ccccc1)N1CN2CN(C1)CN(S(=O)(=O)c1ccccc1)C2
- TGI [1]: > 100 µM
- TGI [2]: > 100 µM
- TGI [3]: > 100 µM
- TGI [4]: > 100 µM
- TGI [5]: > 100 µM
- TGI [6]: > 100 µM
- TGI [7]: > 100 µM
- TGI [8]: > 100 µM
- TGI [9]: > 100 µM
- TGI [10]: > 100 µM

Compound: COc1c(O)cc2c(c1O)C(=O)C1=C(CCCC1)C2=O
- TGI [1]: > 100 µM
- TGI [2]: 82.7 µM
- TGI [3]: 31.9 µM
- TGI [4]: 43.2 µM
- TGI [5]: 40.1 µM
- TGI [6]: 44 µM
- TGI [7]: > 100 µM
- TGI [8]: 62 µM
- TGI [9]: 34.2 µM
- TGI [10]: > 100 µM

Compound: Cc1nc(-c2cnc(NC(C)C)n(C)c2=O)ccc1Oc1ccnc(-c2cnn(C)c2)c1
- GI50 [1]: 19.4 µM
- TGI [1]: > 100 µM
- GI50 [2]: 7.44 µM
- TGI [2]: 53.1 µM
- GI50 [3]: 4.31 µM
- TGI [3]: 26.6 µM
- GI50 [4]: 4.67 µM
- TGI [4]: > 100 µM
- GI50 [5]: 10.6 µM
- TGI [5]: 80.7 µM
- GI50 [6]: 7.5 µM
- TGI [6]: 46.8 µM
- GI50 [7]: 15.6 µM
- TGI [7]: > 100 µM
- GI50 [8]: 14.2 µM
- TGI [8]: > 100 µM
- GI50 [9]: 2.99 µM
- TGI [9]: 29.1 µM
- GI50 [10]: 12.7 µM
- TGI [10]: 70 µM
